According to ChEMBL document CHEMBL1201862, “PubChem BioAssay data set” (2004):
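All cell lines were grown in 96-well plates and treated with compound for 48 hours. Here, GI50 denotes the concentration required for 50% inhibition of growth.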 Calls of active or inactive are those of the source. No stated cut-off is given here; in the data, active = GI50 up to about 1.1 µM and inactive = higher.

Key:
Experiment in all cases: NCI tumour cell line growth inhibition, 48 h
[1] = tested on: HCT-116
[2] = tested on: IGROV-1
[3] = tested on: KM12
[4] = tested on: OVCAR-8
[5] = tested on: HT-29
[6] = tested on: SF-539
[7] = tested on: LOX IMVI
[8] = tested on: MDA-MB-231
[9] = tested on: UO-31
[10] = tested on: RPMI-8226
[11] = tested on: HCC 2998
[12] = tested on: SF-295
[13] = tested on: NCI-H522
[14] = tested on: 786-0
[15] = tested on: K562
[16] = tested on: MCF7
[17] = tested on: HOP-92
[18] = tested on: SNB-75
[19] = tested on: SN12C
[20] = tested on: UACC-62

Measured: GI50

O=C(c1cc2c(c3ccccc13)NCCN=C2C(F)(F)F)C(F)(F)F
inactive: [1] 26.7 µM | [2] 29.6 µM | [3] 19.4 µM | [4] 34.5 µM | [5] 11.6 µM | [6] 20.1 µM | [7] 13.7 µM | [8] 20.2 µM | [9] 51.9 µM | [10] 6.95 µM | [11] 17.5 µM | [12] 16 µM | [13] 20.6 µM | [14] 20.8 µM | [15] 7.16 µM | [16] 19.2 µM | [17] 21.9 µM | [18] 21.6 µM

Cn1c2ccc([N+](=O)[O-])cc2c(=O)c2c(O)cc(O)cc21
inactive: [2] 15.5 µM | [3] 61.1 µM | [4] 13.2 µM | [19] 31.4 µM | [6] 24.3 µM | [7] 37.1 µM | [8] 57.3 µM | [20] 54.5 µM | [9] 59 µM | [10] > 100 µM | [11] > 100 µM | [12] 15.3 µM | [13] 7.74 µM | [14] 19 µM | [15] > 100 µM | [16] 13.7 µM | [17] 32.7 µM | [18] 4.15 µM

CC(=O)OC/C=C(/C=C/CNC1CCCCC1)OC(C)=O
inactive: [1] 14.9 µM | [2] 18.6 µM | [3] 15.5 µM | [4] > 10 µM | [19] 16.7 µM | [5] 18.6 µM | [6] 11.6 µM | [7] 19.1 µM | [8] 14.3 µM | [20] 19.1 µM | [10] 4.83 µM | [11] 23.4 µM | [12] 18.1 µM | [13] 21.4 µM | [14] 11.5 µM | [15] 12.9 µM | [16] 22 µM | [17] 12.5 µM | [18] 31.3 µM

C=C1C(=O)OC2CC(C)C3(O)CCC(=O)C3(C)CC12 (configuration not stated)
inactive: [1] 31.1 µM | [2] 23.8 µM | [3] 20.7 µM | [4] 24.6 µM | [19] 19.1 µM | [5] 20.2 µM | [6] 16.1 µM | [7] 31.8 µM | [8] 26 µM | [20] 44.3 µM | [9] 28.2 µM | [10] 14.8 µM | [11] 23 µM | [12] 40.5 µM | [13] 14.3 µM | [14] 21.3 µM | [16] 29.2 µM | [17] 57.1 µM | [18] 20.2 µM

CCCCCCc1cc(C=O)sc1-c1ccc(-c2sc(-c3ccc(-c4ccc(-c5cc(CCCCCC)c(-c6ccc(-c7sc(C=O)cc7CCCCCC)s6)s5)s4)s3)cc2CCCCCC)s1
inactive: [1] > 100 µM | [2] > 100 µM | [3] > 100 µM | [4] > 100 µM | [19] > 100 µM | [5] > 100 µM | [6] > 100 µM | [7] > 100 µM | [8] > 100 µM | [20] > 100 µM | [9] > 100 µM | [10] > 100 µM | [11] > 100 µM | [12] > 100 µM | [13] 91.4 µM | [14] > 100 µM | [15] > 100 µM | [16] > 100 µM | [17] > 100 µM

CCN1CN(c2ccccc2)C2(CCN(CC(CC3OCCO3)c3ccc(F)cc3)CC2)C1=O (configuration not stated)
inactive: [1] 3.36 µM | [2] 6.75 µM | [3] 10.7 µM | [4] 8.81 µM | [19] 14.3 µM | [5] 1.34 µM | [6] 9.53 µM | [7] 7.43 µM | [8] 16.1 µM | [20] 18.1 µM | [9] 26.2 µM | [10] 10.4 µM | [11] 9.93 µM | [12] 5.69 µM | [13] 12.6 µM | [14] 8.36 µM | [15] 32 µM | [16] 2.26 µM | [17] 2.13 µM | [18] 35.2 µM

CC(=O)OCCC1c2ccccc2-n2nc(-c3ccccc3)c(O)c21 (configuration not stated)
inactive: [1] 16.5 µM | [2] > 10 µM | [3] 16.6 µM | [4] 15.7 µM | [19] 14.8 µM | [5] 21.2 µM | [6] 21.6 µM | [7] 13.7 µM | [8] 19.3 µM | [9] 16.7 µM | [10] 8.07 µM | [11] 24.8 µM | [12] 20 µM | [13] 16.6 µM | [14] 18.6 µM | [15] 10.8 µM | [16] 7.11 µM | [17] 11.9 µM | [18] 20.8 µM

O[C@@]1(c2cccs2)c2cccc(Cl)c2[C@](O)(c2cccs2)c2cccc(Cl)c21
inactive: [1] 13.2 µM | [2] 16.3 µM | [3] 16.4 µM | [4] 55.7 µM | [19] 17.9 µM | [5] 17.2 µM | [6] 29.2 µM | [7] 16.4 µM | [8] 17.3 µM | [20] 11 µM | [9] 46.7 µM | [10] 22 µM | [11] 17.6 µM | [12] 11.1 µM | [13] 18.2 µM | [14] 16.4 µM | [15] 25.5 µM | [16] 18.5 µM | [17] 67.9 µM | [18] > 100 µM
